Tested on: ACHN cell line
Assay: drug screen of the SelleckChem kinase inhibitor library with and without 5 uM SU-329, Cell-Titer Glo after 5 days
Assay type: cell-based
Conditions: kinase inhibitor at 200 nM with and without 5 uM SU329; ACHN cell line; 5 days; Cell-Titer Glo

Structure (SMILES) | log2fc
O=c1ccc2ccc(O)c(O)c2o1 [Daphnetin] | 0.08794
COc1ccc(-c2ccc3c(N4CCOCC4)nc(N4C[C@@H](C)O[C@@H](C)C4)nc3n2)cc1CO [KU-0063794] | −1.551
O=C1NC(=O)C(c2ccccc2[N+](=O)[O-])=C1Nc1ccc(O)c(Cl)c1 [SB415286] | 0.2736
N#C/C(=C/c1ccc(O)c(O)c1)C(=O)NCc1ccccc1 [AG-490 (Tyrphostin B42), AG-490, reference compound] | −0.01509
CCS(=O)(=O)Nc1ccc2c(c1)/C(=C(/Nc1ccc(CN3CCCCC3)cc1)c1ccccc1)C(=O)N2 [Hesperadin] | 0.1006
N#CC1(c2ccc(NC(=O)c3cccnc3NCc3ccncc3)cc2)CCCC1 [Apatinib] | 0.257
CCn1c(-c2nonc2N)nc2c(C#CC(C)(C)O)ncc(OC[C@H]3CCCNC3)c21 [GSK690693] | −0.5999
Cn1c(Nc2ccc(C(F)(F)F)cc2)nc2cc(Oc3ccnc(-c4ncc(C(F)(F)F)[nH]4)c3)ccc21 [RAF265 (CHIR-265)] | 0.9001
CCCS(=O)(=O)Nc1ccc(F)c(C(=O)c2c[nH]c3ncc(-c4ccc(Cl)cc4)cc23)c1F [Vemurafenib (PLX4032, RG7204), vemurafenib, reference compound] | 0.009154
CS(=O)(=O)N1CCN(Cc2cc3nc(-c4cccc5[nH]ncc45)nc(N4CCOCC4)c3s2)CC1 [Pictilisib (GDC-0941)] | −1.17
Nc1ncnc2c1c(-c1cnc3[nH]ccc3c1)nn2C1CCCC1 [PP121] | −0.5206
Cc1cnc(Nc2ccc(OCCN3CCCC3)cc2)nc1Nc1cccc(S(=O)(=O)NC(C)(C)C)c1 [Fedratinib (SAR302503, TG101348)] | −0.003444
CC(C)CCN1c2nc(Nc3cc(F)c(O)c(F)c3)ncc2N(C)C(=O)C1C (stereo not shown) [BI-D1870] | 0.7499
COc1cc2nccc(Oc3ccc(NC(=O)C4(C(=O)Nc5ccc(F)cc5)CC4)cc3)c2cc1OC [Cabozantinib (XL184, BMS-907351)] | 0.001197
O=C1NCCc2[nH]c(-c3ccncc3)cc21 [PHA-767491] | −0.9629
CO[C@H]1C[C@@H]2CC[C@@H](C)[C@@](O)(O2)C(=O)C(=O)N2CCCC[C@H]2C(=O)O[C@H]([C@H](C)C[C@@H]2CC[C@@H](OCCO)[C@H](OC)C2)CC(=O)[C@H](C)/C=C(\C)[C@@H](O)[C@@H](OC)C(=O)[C@H](C)C[C@H](C)/C=C/C=C/C=C/1C [Everolimus (RAD001)] | −1.364
O=c1sn(-c2cccc3ccccc23)c(=O)n1Cc1ccccc1 [Tideglusib] | −0.007073
Oc1ccc(-c2nc(-c3ccc(F)cc3)c(-c3ccncc3)[nH]2)cc1 [SB202190 (FHPI)] | −0.3986
CCCNC(=O)Nc1ccc(Oc2ncnc3cc(OC)c(OC)cc23)cc1Cl [KRN 633] | 0.02524
CCS(=O)(=O)c1cccc(-c2cc(C(=O)NC3CCN(C)CC3)c(C)c3[nH]c4ncc(C)cc4c23)c1 [TAK-901] | 0.2818
C#Cc1cccc(Nc2ncnc3cc4c(cc23)OCCOCCOCCO4)c1 [Icotinib] | 0.1182
CNC(=O)c1cccc(-c2ccc3c(N4CCOC[C@@H]4C)nc(N4CCOC[C@@H]4C)nc3n2)c1 [Vistusertib (AZD2014)] | −0.8127
COc1ccc(S(=O)(=O)N(CCO)c2ccccc2CN(C)C/C=C/c2ccc(Cl)cc2)cc1.O=P(O)(O)O [KN-93 Phosphate] | 0.02491
CC(C)n1nc(-c2cc3cc(O)ccc3[nH]2)c2c(N)ncnc21 [Torkinib (PP242)] | −0.3157
CCN(CCO)CCCOc1ccc2c(Nc3cc(CC(=O)Nc4cccc(F)c4)[nH]n3)ncnc2c1 [Barasertib (AZD1152-HQPA)] | 0.7387
CNC(=O)c1cc(Oc2ccc(NC(=O)Nc3ccc(Cl)c(C(F)(F)F)c3)c(F)c2)ccn1 [Regorafenib (BAY 73-4506)] | 0.8333
O=c1c(-c2ccc(O)cc2)coc2cc(O)cc(O)c12 [Genistein] | 0.05262
CCc1cncnc1N1CCN(Cc2nc3ccc(C(F)(F)F)cc3[nH]2)CC1 [PF-4708671] | 0.5187

— patent publication US12195490B2, “STRAD-binding agents and uses thereof” (The Regents of the University of California, priority 2020, dated 2025)
